Among the data in PubChem BioAssay AID328 (DTP/NCI, 2004) are T/C values, retold here.

This experiment relates to BDF1 mice, P388 leukemia ip, median survival T/C. The experiment can be described thus: NCI In Vivo Anticancer Drug Screen. Data for tumor model P388 Leukemia (intraperitoneal) in B6D2F1 (BDF1) mice. The note with it: endpoint: median survival time, higher = longer survival. The gist of the method: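 Transplantable tumour in mice; compound vs vehicle dosing; survival scored; ratio of treated to control reported.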

[1] abbreviates: dose: 25.0 mg/kg/injection, schedule: Q01DX009 (ip), vehicle: saline with Tween-80.
Setting [2] is: dose: 50.0 mg/kg/injection, schedule: Q01DX009 (ip), vehicle: saline with Tween-80.
The mark [3] stands for this setting: dose: 100.0 mg/kg/injection, schedule: Q01DX009 (ip), vehicle: saline with Tween-80.
[4] abbreviates: dose: 100.0 mg/kg/injection, schedule: Q04DX003 (ip), vehicle: saline with Tween-80.
[5] abbreviates: dose: 200.0 mg/kg/injection, schedule: Q04DX003 (ip), vehicle: saline with Tween-80.
[6] abbreviates: dose: 400.0 mg/kg/injection, schedule: Q04DX003 (ip), vehicle: saline with Tween-80.
Where [7] appears, read: dose: 200.0 mg/kg/injection, schedule: Q01DX009 (ip), vehicle: saline with Tween-80.
Setting [8] is: dose: 400.0 mg/kg/injection, schedule: Q01DX009 (ip), vehicle: saline with Tween-80.
Setting [9] is: dose: 100.0 mg/kg/injection, schedule: Q04DX003 (ip), vehicle: Klucel (hydroxypropylcellulose) (HPC).
The mark [10] stands for this setting: dose: 200.0 mg/kg/injection, schedule: Q04DX003 (ip), vehicle: Klucel (hydroxypropylcellulose) (HPC).
Where [11] appears, read: dose: 400.0 mg/kg/injection, schedule: Q04DX003 (ip), vehicle: Klucel (hydroxypropylcellulose) (HPC).

“And” between values parts separate entries of the source, which are not always exact repeats. Equal values may be shown once. Toxic doses and inconclusive results are not listed. Starred links: 1 amine or outer side, 2 acyl side, 3 side chain; linkers in the order of their positions; H or OH if unused. Positions of bridges follow the written chain, without caps; N, C: chain ends. Non-standard residues stand in square brackets, D forms with d. Residues, ends and D or L forms follow the SMILES beside them. Chains are numbered I, II in the order given. Actinocin(9to1) = Cc1c2oc3c(C)ccc(C(=O)[*:1])c3nc-2c(C(=O)[*:2])c(N)c1=O; NMeV = CN[CH](C(=O)O)C(C)C; Aze = O=C(O)[CH]1CCN1; Sar = CNCC(=O)O

`CC(=O)[O][Hg][c]1s[c]([Hg][O]C(C)=O)[c]([Hg][O]C(C)=O)[c]1[Hg][O]C(C)=O`: the T/C (dose: 1.0 mg/kg/injection, schedule: Q01DX009 (ip), vehicle: Klucel (hydroxypropylcellulose) (HPC)) was 101 % of control; the T/C (dose: 2.0 mg/kg/injection, schedule: Q01DX009 (ip), vehicle: Klucel (hydroxypropylcellulose) (HPC)) is 100 % of control; the T/C (dose: 2.6 mg/kg/injection, schedule: Q01DX009 (ip), vehicle: saline) was 118 % of control; the T/C (dose: 3.8 mg/kg/injection, schedule: Q04DX003 (ip), vehicle: saline) is 95 % of control; the T/C (dose: 4.0 mg/kg/injection, schedule: Q01DX009 (ip), vehicle: Klucel (hydroxypropylcellulose) (HPC)) is 102 % of control; the T/C (dose: 4.0 mg/kg/injection, schedule: Q01DX009 (ip), vehicle: saline) was 118 % of control. Further, the T/C (dose: 6.0 mg/kg/injection, schedule: Q01DX009 (ip), vehicle: Klucel (hydroxypropylcellulose) (HPC)) is 101 % of control; the T/C (dose: 6.0 mg/kg/injection, schedule: Q01DX009 (ip), vehicle: saline) is 118 % of control; the T/C (dose: 7.5 mg/kg/injection, schedule: Q04DX003 (ip), vehicle: saline) was 100 % of control; the T/C (dose: 9.0 mg/kg/injection, schedule: Q01DX009 (ip), vehicle: Klucel (hydroxypropylcellulose) (HPC)) is 103 % of control; the T/C (dose: 9.0 mg/kg/injection, schedule: Q01DX009 (ip), vehicle: saline) was 118 % of control.

For the compound `CCOC(=O)[C@]1(Br)CC[C@@]1(Br)C(=O)OCC`, the T/C is, setting by setting: under setting [1], 112 % of control; under setting [2], 113 % of control and 114 % of control; under setting [3], 117 % of control.

With `Cc1ccc(NC(=O)COc2ccc(Cl)cc2Cl)cc1Cl`, the T/C under setting [4] is 100 % of control, the T/C under setting [5] was 90 % of control and the T/C under setting [6] is 90 % of control.

Take `NC(N)=NC(N)=Nc1ccc(-c2ccc(N=C(N)N=C(N)N)cc2)cc1`: the T/C by setting is: (dose: 12.5 mg/kg/injection, schedule: Q01DX009 (ip), vehicle: saline with Tween-80) 151 % of control; under setting [1], 89 % of control.

Consider `CC(C)=CCC/C(C)=C/CN1C(=O)c2ccccc2C1=O`, for which the T/C reads like this: under setting [3], 92 % of control; under setting [4], 87 % of control; under setting [7], 92 % of control; under setting [5], 96 % of control; under setting [8], 108 % of control; under setting [6], 94 % of control.

Turning to `Fc1ccc(C=Nc2cccc(Cl)c2)cc1`, the T/C under setting [4] was 108 % of control, the T/C under setting [5] was 104 % of control and the T/C under setting [6] is 108 % of control.

For `Clc1ccc(/C(=C(\Br)c2ccccc2)c2ccccc2)cc1`, the T/C under setting [3] was 104 % of control and 100 % of control; the T/C under setting [7] was 86 % of control and 100 % of control; the T/C under setting [8] was 95 % of control and 90 % of control.

Consider `CCc1ccc(NC(=O)c2ccccc2Cl)cc1`, for which the T/C under setting [4] is 100 % of control, the T/C under setting [5] was 91 % of control and the T/C under setting [6] was 91 % of control.

As for `[Cl][Ni+2][Cl].[NH-]CCN1CC1`, the T/C reads like this: (dose: 6.25 mg/kg/injection, schedule: Q01DX001 (ip), vehicle: saline) 90 % of control; (dose: 12.5 mg/kg/injection, schedule: Q01DX001 (ip), vehicle: saline) 100 % of control; (dose: 25.0 mg/kg/injection, schedule: Q01DX001 (ip), vehicle: saline) 100 % of control.

For `CCN(CC)CCC(=O)c1ccccc1`, under setting [2], the T/C was 95 % of control.

For `CCCCCCCCCC(=O)CCC`, the T/C is, setting by setting: (dose: 100.0 mg/kg/injection, schedule: Q04DX003 (ip), vehicle: saline) 100 % of control; (dose: 200.0 mg/kg/injection, schedule: Q04DX003 (ip), vehicle: saline) 100 % of control; (dose: 400.0 mg/kg/injection, schedule: Q04DX003 (ip), vehicle: saline) 104 % of control.

For `Clc1cc(Cl)c(I)c(Cl)c1`, the T/C was 92 % of control under setting [3]; 100 % of control under setting [9]; 89 % of control under setting [7]; 100 % of control under setting [10]; 96 % of control under setting [8]; 91 % of control under setting [11].

For `CCCCCCCCCCCCCCCCCC(N)=O`, the T/C by setting is: under setting [9], 90 % of control; under setting [10], 95 % of control; under setting [11], 100 % of control.

Take `COC(=O)c1ccc(COc2ccc([N+](=O)[O-])cc2Cl)cc1`: the T/C (dose: 44.0 mg/kg/injection, schedule: Q01DX009 (ip), vehicle: saline with Tween-80) was 90 % of control; the T/C (dose: 66.0 mg/kg/injection, schedule: Q01DX009 (ip), vehicle: saline with Tween-80) was 90 % of control; the T/C under setting [3] was 90 % of control; the T/C (dose: 150.0 mg/kg/injection, schedule: Q01DX009 (ip), vehicle: saline with Tween-80) was 86 % of control; the T/C (dose: 176.0 mg/kg/injection, schedule: Q04DX003 (ip), vehicle: saline with Tween-80) is 100 % of control; the T/C under setting [7] was 115 % of control. For the same compound, the T/C reads like this: (dose: 264.0 mg/kg/injection, schedule: Q04DX003 (ip), vehicle: saline with Tween-80) 100 % of control; under setting [8], 105 % of control; under setting [6], 90 % of control.

Consider `CCNSc1ccccc1`, for which the T/C (dose: 12.5 mg/kg/injection, schedule: Q01DX009 (ip), vehicle: Klucel (hydroxypropylcellulose) (HPC)) is 109 % of control; the T/C (dose: 25.0 mg/kg/injection, schedule: Q01DX009 (ip), vehicle: Klucel (hydroxypropylcellulose) (HPC)) was 110 % of control; the T/C (dose: 50.0 mg/kg/injection, schedule: Q01DX009 (ip), vehicle: Klucel (hydroxypropylcellulose) (HPC)) is 106 % of control.

On to `Cc1c2oc3c(C)ccc(C(=O)NC4C(=O)NC(C(C)C)C(=O)N5CCC5C(=O)N(C)CC(=O)N(C)C(C(C)C)C(=O)OC4C)c3nc-2c(C(=O)NC2C(=O)NC(C(C)C)C(=O)N3CCC3C(=O)N(C)CC(=O)N(C)C(C(C)C)C(=O)OC2C)c(N)c1=O` (stereo not drawn) (I: TV[Aze][Sar][NMeV] / II: TV[Aze][Sar][NMeV]; ester I:1-I:C, II:1-II:C; linker I:N-II:N via Actinocin(9to1); configuration not given here), for which the T/C was 226 % of control (dose: 0.26 mg/kg/injection, schedule: Q04DX003 (ip), vehicle: saline); 180 % of control (dose: 0.4 mg/kg/injection, schedule: Q04DX003 (ip), vehicle: saline); 319 % of control (dose: 0.6 mg/kg/injection, schedule: Q04DX003 (ip), vehicle: saline); 190 % of control (dose: 12.5 micrograms/kg/injection, schedule: Q01DX009 (ip), vehicle: saline + alcohol); 197 % of control (dose: 25.0 micrograms/kg/injection, schedule: Q01DX009 (ip), vehicle: saline + alcohol); 239 % of control (dose: 50.0 micrograms/kg/injection, schedule: Q01DX009 (ip), vehicle: saline + alcohol). For the same compound, the T/C was 237 % of control (dose: 75.0 micrograms/kg/injection, schedule: Q01DX009 (ip), vehicle: saline + alcohol); 260 % of control (dose: 100.0 micrograms/kg/injection, schedule: Q01DX009 (ip), vehicle: saline + alcohol); 274 % of control (dose: 112.5 micrograms/kg/injection, schedule: Q01DX009 (ip), vehicle: saline + alcohol); 274 % of control (dose: 150.0 micrograms/kg/injection, schedule: Q01DX009 (ip), vehicle: saline + alcohol); 218 % of control (dose: 150.0 micrograms/kg/injection, schedule: Q04DX003 (ip), vehicle: saline + alcohol); 166 % of control (dose: 200.0 micrograms/kg/injection, schedule: Q01DX009 (ip), vehicle: saline + alcohol). For the same compound, the T/C reads like this: (dose: 216.0 micrograms/kg/injection, schedule: Q04DX003 (ip), vehicle: saline + alcohol) 207 % of control; (dose: 225.0 micrograms/kg/injection, schedule: Q01DX009 (ip), vehicle: saline + alcohol) 108 % of control; (dose: 225.0 micrograms/kg/injection, schedule: Q04DX003 (ip), vehicle: saline + alcohol) 212 % of control; (dose: 300.0 micrograms/kg/injection, schedule: Q01DX009 (ip), vehicle: saline + alcohol) 113 % of control; (dose: 360.0 micrograms/kg/injection, schedule: Q04DX003 (ip), vehicle: saline + alcohol) 225 % of control; (dose: 450.0 micrograms/kg/injection, schedule: Q04DX003 (ip), vehicle: saline + alcohol) 238 % of control and 336 % of control. For the same compound, the T/C was 88 % of control and 117 % of control (dose: 900.0 micrograms/kg/injection, schedule: Q04DX003 (ip), vehicle: saline + alcohol); 97 % of control (dose: 1000.0 micrograms/kg/injection, schedule: Q04DX003 (ip), vehicle: saline + alcohol); 102 % of control (dose: 1200.0 micrograms/kg/injection, schedule: Q04DX003 (ip), vehicle: saline + alcohol).
